Reference: patent US20240208998A1, “COMPOUNDS FOR USE IN THE TREATMENT OF HYPERPROLIFERATIVE DISORDERS” (FUNDACIÓ PRIVADA INSTITUT D'INVESTIGACIÓ ONCOLÓGICA DE VALL …, priority 2021, published 2024)

How the values were obtained:
HL60 cell line = assay: Antiproliferative activity on HL60 cell line (CellTiter-Glo); assay type: cell-based; conditions: Homo sapiens, HL-60; HL60, 72 h of treatment
Description: The human leukaemic cell line HL60 was grown in suspension in RPMI 1640 medium containing 10% (v/v) FBS and 1% (v/v) P/S (Life Technologies). […] Leukaemia cells were suspended at a density of 2×10^5 cells/mL in complete RPMI 1640 medium and 25 μL were seeded in each well (5×10^3 final total cells/well). A 10 μM solution of the compounds of examples 1, 12 and 21, and a 25 μM solution of all other compounds were prepared in complete medium, and then serially diluted (1:2) (as specified in Table 3 below). A solution of complete medium with DMSO was used as a vehicle control.
Twenty-five microliters of each serially diluted compound solution were added to the corresponding wells of the plate (50 μL of final volume/well). After 48 h of treatment, 50 μL of fresh 2X serially diluted compound solution was added to their corresponding wells (100 μL of final volume/well). After twenty-four additional hours, an equal volume (100 μL) of CellTiter-Glo Reagent (Promega) was added to each well, plates were shaken during 2 min and incubated at rt for 10 min. Luminescence was recorded using a Spark multimode microplate reader and an integration time of 1 s per well.

human TET2 construct = human TET2 construct (Homo sapiens, UniProt Q6N021, A1837G/A1840G/D1704G/D1842G/DEL1471-1702/DEL1708-1833/E1841G/F1706G/N1843S/Q1834G/V1836G); assay: Determination of TET2 binding by Surface Plasmon Resonance; conditions: SPR, Biacore T200, 25° C., steady state fit to single site interaction model
Description: The human methylcytosine dioxygenase TET2 construct used (1129-2002 with residues 1471-1843 replaced by a 15-residue GS-linker) was expressed in a pET-28a(+)psumo vector with kanamycin resistance and an N-terminal His6 tag, and cloned in Rosetta D3 Escherichia coli competent cells. Transformed cells were cultured overnight in 10 mL of LB media supplied with kanamycin (50 μg/mL), then scaled to 1 L LB medium supplied with kanamycin (50 μg/mL) and grown at 37° C. Once the optical density (OD600) achieved 0.8, protein expression was induced with 0.4 mM isopropyl-β-thiogalactopyranoside (IPTG) overnight at 18° C. Cells were harvested by centrifugation (8,000 rpm, 4° C., 30 min) and the pellet obtained was resuspended in 15 mL of buffer A (50 mM Hepes, 150 mM NaCl, 30 mM imidazole, 2 mM β-mercaptoethanol (pH 8.0) supplemented with Pierce protease inhibitor cocktail (ThermoFisher Scientific)) and lysed by sonication (1 min 40 s: 10 cycles×10 s ON, 30 s OFF, A=35%, T=19° C.) followed by two consecutive centrifugations (8,000 rpm, 4° C., 30 min) to clarify the lysate.
The TET2 protein was purified using an AKTA Start system (GE Healthcare, Uppsala, Sweden) by two-step purification procedure: one His-affinity chromatography followed by a size exclusion chromatography. First, the protein fraction obtained during the lysis (supernatant) was applied to a 5 mL HisTrap HP column (GE Healthcare), washed with buffer A (50 mM Hepes, 150 mM NaCl, 30 mM imidazole, 2 mM […] (pH 8.0)) and the bound protein was eluted with buffer B (50 mM Hepes, 150 mM NaCl, 250 mM imidazole, 2 mM β-mercaptoethanol (pH 8.0)). The eluted protein-containing fractions were pooled and concentrated up to 4 mL for the last purification step: a size exclusion chromatography (HiPrep 16/60 Sephacryl S-100 HR) in 50 mM Hepes, 150 mM NaCl, 2 mM β-mercaptoethanol (pH 8.0). Finally, the mass and purity of the protein were verified by SDS-electrophoresis and mass spectrometry.
The binding of compounds of the examples was determined by Surface Plasmon Resonance (SPR) using a Biacore T200 SPR biosensor instrument (GE Healthcare, Uppsala, Sweden) at 25° C. The human TET2 construct was immobilized on a CM5 sensor chip using a standard covalent immobilization via amine coupling following the activation of the carboxymethyl dextran matrix of the sensor chip (injection of a solution containing 0.1 M N-hydroxysuccinimide and 0.4 M 1-ethyl-3-[3-(dimethylamino)propyl]carbodiimide hydrochloride at a flow rate of 15 μL/min for 7 min). The protein immobilization was achieved after the injection of 5 μg/mL TET2 in 10 mM sodium acetate (pH 4.0) at a flow rate of 5 μL/min. Unreacted activated groups of the dextran matrix were deactivated by injection of 1 M ethanolamine hydrochloride for 7 min at a flow rate of 15 μL/min. The corresponding matrix activation and protein immobilization were performed using as a running buffer a phosphate buffered saline solution (1.05× PBS: 10 mM phosphate, pH 7.4, 150 mM NaCl). The screened compounds were prepared in a 20 mM stock solution in DMSO and diluted with 1.05× PBS to achieve a final 5% (v/v) DMSO concentration. The running buffer of the interaction assays consisted of 1×PBS, 5% (v/v) DMSO. The flow rate used for the screening was 60 μL/min and the ligand association and dissociation times set were 60 s and 120 s, respectively.
For data analysis the software used was the Biacore T200 Evaluation software. Different corrections were applied. First, the nonspecific binding to the chip surface and the baseline drift were corrected subtracting the signals of a reference surface (where the immobilization procedure was carried out without proteins) to the signals obtained on the TET2 surface. Second, a series of solvent standards (solvent correction) were introduced to remove the differences derived from the DMSO. Finally, the background was corrected subtracting blank injections (blank subtraction) to the injected compound signals.

| SMILES | melting point [°C] | EC50 (HL60 cell line) [µM] | Kd (human TET2 construct) [µM] |
| --- | --- | --- | --- |
| Cc1[nH]c2ccccc2c1-c1csc(NC(=O)Cc2csc3nccn23)n1 [Example 2, 2-(imidazo[2,1-b]thiazol-3-yl)-N-[4-(2-methyl-1H-indol-3-yl)thiazol-2-yl]acetamide] | 160 to 163 | 4.3 | 15 |
| Cc1[nH]c2ccccc2c1-c1csc(NC(=O)Cc2nc3ccccc3o2)n1 [Example 3, 2-(benzo[d]oxazol-2-yl)-N-[4-(2-methyl-1H-indol-3-yl)thiazol-2-yl]acetamide] | 239 to 242 | 1.3 | 16 |
| Cc1[nH]c2ccccc2c1-c1coc(NC(=O)Cc2cn3ccsc3n2)n1 [Example 5, 2-(imidazo[2,1-b]thiazol-6-yl)-N-[4-(2-methyl-1H-indol-3-yl)oxazol-2-yl]acetamide] | 122 to 124 | 12.1 | 21 |
| COc1ccc2[nH]cc(CC(=O)Nc3nc(-c4c(C)[nH]c5ccccc45)cs3)c2c1 [Example 6, 2-(5-methoxy-1H-indol-3-yl)-N-[4-(2-methyl-1H-indol-3-yl)thiazol-2-yl]acetamide] | 127 to 129 | 3.4 | 5 |
| Cc1[nH]c2ccccc2c1-c1csc(NC(=O)Cc2cc3ccccc3[nH]2)n1 [Example 7, 2-(1H-indol-2-yl)-N-[4-(2-methyl-1H-indol-3-yl)thiazol-2-yl]acetamide] | 166 to 168 | 9.3 | 5 |
| Cc1[nH]c2ccccc2c1-c1csc(NC(=O)Cc2cn3cc(F)ccc3n2)n1 [Example 8, 2-(6-fluoroimidazo[1,2-a]pyridin-2-yl)-N-[4-(2-methyl-1H-indol-3-yl)thiazol-2-yl]acetamide] | 114 to 119 | 0.072 | 10 |
| Cc1cn2cc(CC(=O)Nc3nc(-c4c(C)[nH]c5ccccc45)cs3)nc2s1 [Example 9, N-[4-(2-methyl-1H-indol-3-yl)thiazol-2-yl]-2-(2-methylimidazo[2,1-b]thiazol-6-yl)acetamide] | 140 to 142 |  | 9 |
| Cc1[nH]c2ccccc2c1-c1csc(NC(=O)Cc2cn3c(C)csc3n2)n1 [Example 10, N-[4-(2-methyl-1H-indol-3-yl)thiazol-2-yl]-2-(3-methylimidazo[2,1-b]thiazol-6-yl)acetamide] | 145 to 148 | 3.3 | 11 |
| Cc1[nH]c2ccccc2c1-c1csc(NC(=O)Cc2cn(C)c3ccccc23)n1 [Example 11, 2-(1-methyl-1H-indol-3-yl)-N-[4-(2-methyl-1H-indol-3-yl)thiazol-2-yl]acetamide] | 139 to 142 | 2.2 | 2 |
| Cc1[nH]c2ccccc2c1-c1csc(NC(=O)CCc2c[nH]c3ccccc23)n1 [Example 14, 3-(1H-indol-3-yl)-N-[4-(2-methyl-1H-indol-3-yl)thiazol-2-yl]propanamide] | 133 to 135 | 13.4 | 14 |
| Cc1[nH]c2ccccc2c1-c1csc(N(C)C(=O)C(C)c2cn3ccsc3n2)n1 (stereo not drawn) [Example 15, 2-(imidazo[2,1-b]thiazol-6-yl)-N-methyl-N-[4-(2-methyl-1H-indol-3-yl)thiazol-2-yl]propanamide] | 85 to 88 | 20.2 | 11 |
| Cc1[nH]c2ccccc2c1-c1csc(NC(=O)Cc2c[nH]c3cc(Cl)ccc23)n1 [Example 16, 2-(6-chloro-1H-indol-3-yl)-N-[4-(2-methyl-1H-indol-3-yl)thiazol-2-yl]acetamide] | 175 to 177 |  | 7 |
| Cc1[nH]c2ccccc2c1-c1csc(NC(=O)Cc2c[nH]cn2)n1 [Example 17, 2-(1H-imidazol-4-yl)-N-[4-(2-methyl-1H-indol-3-yl)thiazol-2-yl]acetamide] | 107 to 112 | 4.9 | 11 |
| Cc1[nH]c2ccccc2c1-c1csc(NC(=O)Cc2cc3ccccc3o2)n1 [Example 18, 2-(benzofuran-2-yl)-N-[4-(2-methyl-1H-indol-3-yl)thiazol-2-yl]acetamide] | 198 to 200 | 7.5 | 5 |
| Cc1[nH]c2ccccc2c1-c1csc(NC(=O)Cc2sc3ccccc3c2C)n1 [Example 20, N-[4-(2-methyl-1H-indol-3-yl)thiazol-2-yl]-2-(3-methylbenzo[b]thiophen-2-yl)acetamide] | 233 to 235 |  | 5 |
| O=C(Cc1cn2ccsc2n1)Nc1nc(-c2c[nH]c3cccc(Br)c23)cs1 [Example 22, N-[4-(4-bromo-1H-indol-3-yl)thiazol-2-yl]-2-(imidazo[2,1-b]thiazol-6-yl)acetamide] | 233 to 235 | 0.266 | 2 |
| O=C(Cc1cn2ccsc2n1)Nc1nc(-c2c[nH]c3ccc([N+](=O)[O-])cc23)cs1 [Example 23, 2-(imidazo[2,1-b]thiazol-6-yl)-N-[4-(5-nitro-1H-indol-3-yl)thiazol-2-yl]acetamide] | 232 to 234 |  | 15 |
| COc1ccc2[nH]c(C)c(-c3csc(NC(=O)Cc4cn5ccsc5n4)n3)c2c1 [Example 25, 2-(imidazo[2,1-b]thiazol-6-yl)-N-[4-(5-methoxy-2-methyl-1H-indol-3-yl)thiazol-2-yl]acetamide] | 143 to 144 |  | 13 |
| Cc1[nH]c2cc(F)ccc2c1-c1csc(NC(=O)Cc2cn3ccsc3n2)n1 [Example 26, N-[4-(6-fluoro-2-methyl-1H-indol-3-yl)thiazol-2-yl]-2-(imidazo[2,1-b]thiazol-6-yl)acetamide] | 157 to 158 |  | 16 |
| Cc1[nH]c2ccc([N+](=O)[O-])cc2c1-c1csc(NC(=O)Cc2cn3ccsc3n2)n1 [Example 27, 2-(imidazo[2,1-b]thiazol-6-yl)-N-[4-(2-methyl-5-nitro-1H-indol-3-yl)thiazol-2-yl]acetamide] | 150 to 151 |  |  |
| Cc1[nH]c2ccc(N)cc2c1-c1csc(NC(=O)Cc2cn3ccsc3n2)n1 [Example 28, N-[4-(5-amino-2-methyl-1H-indol-3-yl)thiazol-2-yl]-2-(imidazo[2,1-b]thiazol-6-yl)acetamide] | 125 to 126 |  | 67 |
